In patent US5929097A, “Preparation and use of ortho-sulfonamido aryl hydroxamic acids as matrix metalloproteinase and tace inhibitors” (American Cyanamid Company, priority 1997, dated 1999):
Read-outs that look alike come from different tables or passages of the source.

Tests used:
MMP-9 = MMP-9 (Homo sapiens, UniProt P14780); test: biochemical
Protocol: (§1) The enzyme activity is measured by the rate of the color increase. The thiopeptide substrate is made up fresh as a 20 mM stock in 100% DMSO and the DTNB is dissolved in 100% DMSO as a 100 mM stock and stored in the dark at room temperature. Both the substrate and DTNB are diluted together to 1 mM with substrate buffer (50 mM HEPES pH 7.5, 5 mM CaCl2) before use. The stock of enzyme is diluted with assay buffer (50 mM HEPES, pH 7.5, 5 mM CaCl2, 0.02% Brij) to the desired final concentration.
(§2) Alternatively, a fluorescent peptide substrate is used. In this assay, the peptide substrate contains a fluorescent group and a quenching group. Upon cleavage of the substrate by an MMP, the fluorescence that is generated is quantitated on the fluorescence plate reader. The assay is run in HCBC assay buffer (50 mM HEPES, pH 7.0, 5 mM Ca^+2, 0.02% Brij, 0.5% Cysteine), with human recombinant MMP-1, MMP-9, or MMP-13. The substrate is dissolved in methanol and stored frozen in 1 mM aliquots. For the assay, substrate and enzymes are diluted in HCBC buffer to the desired concentrations. Compounds are added to the 96 well plate containing enzyme and the reaction is started by the addition of substrate.
(§3) For either the thiopeptide or fluorescent peptide assays, the slope of the line is calculated and represents the reaction rate. The linearity of the reaction rate is confirmed (r^2 >0.85). The mean (x±sem) of the control rate is calculated and compared for statistical significance (p<0.05) with drug-treated rates using Dunnett's multiple comparison test.

MMP-1 = molecular target: T1, MMP-1 (Homo sapiens, UniProt P03956); test: MMP-1 inhibition (thiopeptide/DTNB or fluorescent peptide substrate); assay type: biochemical
T1 sequence (P03956 100-469): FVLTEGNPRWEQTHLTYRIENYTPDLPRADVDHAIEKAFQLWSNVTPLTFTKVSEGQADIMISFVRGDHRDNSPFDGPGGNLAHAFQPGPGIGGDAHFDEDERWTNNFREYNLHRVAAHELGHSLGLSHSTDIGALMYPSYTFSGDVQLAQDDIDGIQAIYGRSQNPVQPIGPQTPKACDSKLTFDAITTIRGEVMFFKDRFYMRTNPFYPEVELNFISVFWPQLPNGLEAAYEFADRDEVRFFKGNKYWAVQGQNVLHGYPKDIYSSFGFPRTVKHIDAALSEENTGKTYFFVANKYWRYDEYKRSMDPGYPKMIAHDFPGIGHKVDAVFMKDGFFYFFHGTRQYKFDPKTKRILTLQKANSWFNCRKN
Protocol: as §1, §2, §3

TACE = molecular target: T2, TACE (Homo sapiens, UniProt P78536); test: TACE inhibition (fluorescent peptidyl substrate); assay type: biochemical
T2 construct: purchased Immunex
Protocol: Procedure for Measuring TACE Inhibition
Using 96-well black microtiter plates, each well receives a solution composed of 10 μL TACE (Immunex, final concentration 1 μg/mL), 70 μL Tris buffer, pH 7.4 containing 10% glycerol (final concentration 10 mM), and 10 μL of test compound solution in DMSO (final concentration 1 μM, DMSO concentration <1%) and incubated for 10 minutes at room temperature.
The reaction is read (excitation 340 nm, emission 420 nm) for 10 min. and the increase in fluorescence over time is plotted as a linear line. The slope of the line is calculated and represents the reaction rate.
The linearity of the reaction rate is confined (r^2 >0.85). The mean (x±sem) of the control rate is calculated and compared for statistical significance (p<0.05) with drug-treated rates using Dunnert's multiple comparison test.

MMP-13 = MMP-13 (Homo sapiens, UniProt P45452); test: MMP-13 inhibition (thiopeptide/DTNB or fluorescent peptide substrate); assay type: biochemical
Protocol: as §1
Alternatively, a fluorescent peptide substrate is used. In this assay, the peptide substrate contains a fluorescent group and a quenching group. Upon cleavage of the substrate by an MMP, the fluorescence that is generated is quantitated on the fluorescence plate reader. The assay is run in HCBC assay buffer (50 mM HEPES, pH 7.0, 5 mM Ca^+2, 0.02% Brij, 0.5% Cysteine), with human recombinant MMP-1, MMP-9, or MMP-13. The substrate is dissolved in methanol and stored frozen in 1 mM aliquots. For the assay, substrate and enzymes are diluted in HCBC buffer to the desired concentrations. […]
For either the thiopeptide or fluorescent peptide assays, the slope of the line is calculated and represents the reaction rate. […] The mean (x±sem) of the control rate is calculated and compared for statistical significance (p<0.05) with drug-treated rates using Dunnett's multiple comparison test.

MMP9 = test: In vivo MMP inhibition (implanted dialysis tubing containing MMP enzyme); parameters: species or system rat (Sprague-Dawley) or mouse (CD-1)
Protocol: Drugs are administered PO, IP, SC or IV through a canula in the jugular vein. […] Contents of the dialysis tubing is collected and enzyme activity assayed.
Enzyme reaction rates for each dialysis tube are calculated. Tubes from at least 3 different animals are used to calculate the meani sem. Statistical significance (p<0.05) of vehicle-treated animals versus drug-treated animals is determined by analysis of variance.

T2 sequence (P78536 215-824): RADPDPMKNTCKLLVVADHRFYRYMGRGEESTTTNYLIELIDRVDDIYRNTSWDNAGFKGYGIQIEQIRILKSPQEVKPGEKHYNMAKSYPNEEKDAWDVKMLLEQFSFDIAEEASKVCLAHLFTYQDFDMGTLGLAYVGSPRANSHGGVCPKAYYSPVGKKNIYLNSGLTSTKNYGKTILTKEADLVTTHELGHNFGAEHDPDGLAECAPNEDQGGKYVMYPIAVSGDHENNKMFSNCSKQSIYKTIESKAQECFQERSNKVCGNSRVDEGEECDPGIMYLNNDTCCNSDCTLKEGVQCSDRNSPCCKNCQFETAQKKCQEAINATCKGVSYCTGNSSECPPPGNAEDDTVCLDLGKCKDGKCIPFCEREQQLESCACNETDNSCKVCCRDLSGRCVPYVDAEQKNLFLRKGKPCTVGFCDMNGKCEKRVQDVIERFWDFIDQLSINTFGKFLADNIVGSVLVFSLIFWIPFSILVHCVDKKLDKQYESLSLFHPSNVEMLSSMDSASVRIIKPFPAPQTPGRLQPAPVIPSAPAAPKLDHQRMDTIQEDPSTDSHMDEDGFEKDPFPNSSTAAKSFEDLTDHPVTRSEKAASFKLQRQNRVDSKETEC
Sequence of MMP-9 (P14780 94-707): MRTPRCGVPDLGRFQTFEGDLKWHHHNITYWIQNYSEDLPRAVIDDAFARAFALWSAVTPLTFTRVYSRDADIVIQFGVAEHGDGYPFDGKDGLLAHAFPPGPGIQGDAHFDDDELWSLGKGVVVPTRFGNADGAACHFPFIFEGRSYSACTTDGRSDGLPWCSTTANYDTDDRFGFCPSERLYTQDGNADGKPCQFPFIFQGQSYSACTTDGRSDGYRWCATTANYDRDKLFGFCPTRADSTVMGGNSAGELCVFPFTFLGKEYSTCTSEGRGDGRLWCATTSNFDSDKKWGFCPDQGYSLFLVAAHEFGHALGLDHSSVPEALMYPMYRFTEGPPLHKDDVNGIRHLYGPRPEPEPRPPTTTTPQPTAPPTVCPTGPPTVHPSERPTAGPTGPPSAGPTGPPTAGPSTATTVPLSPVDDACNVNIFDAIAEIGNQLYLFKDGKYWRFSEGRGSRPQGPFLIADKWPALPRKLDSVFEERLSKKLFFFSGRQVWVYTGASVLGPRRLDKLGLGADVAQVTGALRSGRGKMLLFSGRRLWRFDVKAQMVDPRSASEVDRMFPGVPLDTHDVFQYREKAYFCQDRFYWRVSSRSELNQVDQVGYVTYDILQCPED

Row | Compound | IC50 (MMP-9) | IC50 (MMP-1) | in-vivo MMP % inhibition vs. MMP9 (MMP9; 100 mg/kg, ip) | other results
1 | COc1ccc(S(=O)(=O)N(Cc2cccnc2)c2c(C(=O)NO)cc(C)cc2-c2cccs2)cc1 [Example 145, N-Hydroxy-2-[(4-methoxy-benzenesulfonyl)-pyridin-3-ylmethyl-amino]-5-methyl-3-thiophen-2-yl-benzamide] | 7 nM | 55 nM | – | IC50 (TACE; read-out: TACE IC50): 158 nM; IC50 (MMP-13; read-out: MMP-13 IC50): 3 nM
2 | CCCN(c1c(C)cc(C)cc1C(=O)NO)S(=O)(=O)c1ccc(OC)cc1 [Example 117, N-Hydroxy-2-[(4-methoxy-benzenesulfonyl)-propyl-amino]-3,5-dimethyl-benzamide] | – | – | 28.3% | –
3 | COc1ccc(S(=O)(=O)N(Cc2ccccc2)c2c(Cl)cccc2C(=O)NO)cc1 [Example 24, 2-[Benzyl-(4-methoxy-benzenesulfonyl)-amino]-3-chloro-N-hydroxy-benzamide] | – | – | – | IC50 (TACE; read-out: TACE IC50): 1000 nM
4 | CCCCCCCCN(c1c(CN2CCN(C)CC2)cccc1C(=O)NO)S(=O)(=O)c1ccc(OC)cc1 [Example 325, N-Hydroxy-2-[(4-methoxy-benzenesulfonyl)-octyl-amino] -3-(4-methyl-piperazin-1-ylmethyl)-benzamide] | – | 20 nM | – | –
5 | COc1ccc(S(=O)(=O)N(Cc2ccccc2)c2c(C)cc(Br)cc2C(=O)NO)cc1 [Example 25, 2-[Benzyl-(4-methoxy-benzenesulfonyl)-amino]-5-bromo-N-hydroxy-3-methyl-benzamide] | – | – | 32% | –
6 | Cc1cccc(C(=O)NO)c1N(C)S(=O)(=O)c1ccc(Oc2ccncc2)cc1 [Example 417] | 6.8 nM | 3240 nM | – | –
7 | COc1ccc(S(=O)(=O)N(Cc2cccnc2)c2c(C)cc(Br)cc2C(=O)NO)cc1 [Example 91, 5-Bromo-N-hydroxy-2-[(4-methoxy-benzenesulfonyl)-pyridin-3-ylmethyl-amino]-3-methyl-benzamide] | – | – | – | in-vivo MMP % inhibition vs. MMP9 (MMP9; 100 mg/kg, po): 55%
8 | COc1ccc(S(=O)(=O)N(Cc2cccnc2)c2c(OCc3cccnc3)cccc2C(=O)NO)cc1 [Example 61] | 34 nM | – | – | in-vivo MMP % inhibition vs. MMP9 (MMP9; 20 mg/kg, po): 46%; in-vivo MMP % inhibition vs. MMP9 (MMP9; 50 mg/kg, po): 59%; IC50 (TACE): 289 nM; IC50 (MMP-13): 33 nM
9 | COc1ccc(S(=O)(=O)N(Cc2ccccc2)c2c(OCc3ccccc3)cccc2C(=O)NO)cc1 [Example 34, 2-[Benzyl-(4-methoxy-benzenesulfonyl)-amino]-3-benzyloxy-N-hydroxy-benzamide] | – | – | 31.6% | –
